Reference: US6558933B2, “Mutant 1,3-propanediol dehydrogenase” (Genencor International, INC, priority 1999, dated 2003)
Substitutions are numbered along the chain they refer to. Where two headings read alike, the source gives them in different places.

How the values were obtained:
[1] = target: T1, E. blattae 1,3-propanediol dehydrogenase (PDD), mutant His 105 to Leu, ATCC PTA-92 (Eb_GEBT), SEQ ID NO: 2 (Shimwellia blattae, UniProt Q3ZL59, H105L); assay: Kinetics of mutant 1,3-propanediol dehydrogenase (PDD), partially purified from E. blattae 33429 derivative PTA-92; format: biochemical, Escherichia blattae
T1 construct: concentrated on PM30 membrane
T1 sequence (Q3ZL59 1-387 H105L): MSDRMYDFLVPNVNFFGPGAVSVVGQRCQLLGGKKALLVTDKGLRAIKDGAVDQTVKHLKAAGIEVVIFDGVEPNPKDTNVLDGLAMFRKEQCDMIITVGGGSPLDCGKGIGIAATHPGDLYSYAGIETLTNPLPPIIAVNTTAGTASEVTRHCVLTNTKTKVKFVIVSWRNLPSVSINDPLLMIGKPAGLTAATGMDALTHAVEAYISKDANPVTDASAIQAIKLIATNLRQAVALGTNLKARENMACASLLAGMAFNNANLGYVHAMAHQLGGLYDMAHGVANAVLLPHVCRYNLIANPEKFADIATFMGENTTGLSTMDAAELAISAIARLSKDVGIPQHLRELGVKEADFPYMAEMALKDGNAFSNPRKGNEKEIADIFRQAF
Description: (§1) Strains—Wild type ATCC 33429, E. blattae comprising the mutant PDD ATCC accession number PTA-92.
(§2) Growth—Cells were grown in a complex medium at 30C 500 ml in a 2800 ml fernbach with shaking at 225 rpm for 20 hr. The medium consists of KH2PO4, 5.4 g/L; (NH4)2SO4, 1.2 g/L; MgSO47H2O, 0.4 g/L; yeast extract, 2.0 g/L; tryptone, 2.0 g/L; and glycerol, 9.2 g/L in tap water. The pH was adjusted to 7.1 with KOH before autoclaving (Honda, et al., 1980, J. Bacteriol, 143:1458-1465).
(§3) Extract prep—Cells were harvested by centrifugation with care to avoid anaerobic conditions. Pellets were resuspended in 100 mM Tricine pH 8.2 containing 50 mM KCl and 1 mM DTT. Cells were disrupted by passage through a French pressure cell. Crude extracts were clarified by centrifugation at 20 K×g for 20 min followed by 100 K×g for 1 hr to yield the high speed supernatant (HSS) fraction.
(§4) Assays—the assay for PDD was performed as described by Johnson, E. A. et al., 1987, J. Bacteriol. 169:2050-2054.
Partial purification of PDD—HSS was separated on a 16×100 Poros 20HQ column. The buffers were A, 60 mM HEPES, pH 7.4 containing 100 uM MnCl and B, A buffer containing 500 mM KCl. The column was loaded and developed at 10 ml/min. The gradient was 10 CV wash. A linear gradient to 70% B in 10 CV, and 1 CV to 100% B. The activity was detected in the very early fractions of the gradient. Pooled column fractions of the 33429 strain were used as collected for assays after the addition of additional DTT to 1 mM. The active fractions from the E. blattae 33429 derivative strain assigned designation PTA-92 were pooled and concentrated on a PM30 membrane and used as concentrated after the addition of additional 1 mM DTT.

[2] = target: T2, E. blattae 1,3-propanediol dehydrogenase (PDD), wild type, strain ATCC 33429 (Eb_429T), SEQ ID NO: 6 (Shimwellia blattae, UniProt Q3ZL59); assay: Kinetics of wild-type 1,3-propanediol dehydrogenase (PDD), partially purified from E. blattae ATCC 33429; format: biochemical, Escherichia blattae; details: wild type strain 33429, pooled column fractions with 1 mM DTT
T2 sequence (Q3ZL59 1-387): T1 sequence (Q3ZL59 1-387 H105L) with L105H
Description: as §1, §2, §3, §4
Partial purification of PDD—HSS was separated on a 16×100 Poros 20HQ column. The buffers were A, 60 mM HEPES, pH 7.4 containing 100 uM MnCl and B, A buffer containing 500 mM KCl. The column was loaded and developed at 10 ml/min. The gradient was 10 CV wash. A linear gradient to 70% B in 10 CV, and 1 CV to 100% B. The activity was detected in the very early fractions of the gradient. […]

Compound | Km for NAD (change in words) ([1]; mutant PDD) | Km ([2]; read-out: Km (NAD)) [mM] | Km for 1,3-propanediol (change in words) ([1]; mutant PDD) | Km of the mutant PDD relative to Km of wild-type PDD for 1,3-propanediol ([1]; mutant PDD vs wild-type PDD) | Km ([2]; read-out: Km (Propanediol)) [mM]
NC(=O)c1ccc[n+]([C@@H]2O[C@H](COP(=O)([O-])OP(=O)(O)OC[C@H]3O[C@@H](n4cnc5c(N)ncnc54)[C@H](O)[C@@H]3O)[C@@H](O)[C@H]2O)c1 [NAD] | altered | 0.057 | – | – | –
OCCCO [1,3-propanediol] | – | – | altered | about 3 times | 28
